From publication PMC9687610, “Adenosine-Mimicking Derivatives of 3-Aminopyrazine-2-Carboxamide: Towards Inhibitors of Prolyl-tRNA Synthetase with Antimycobacterial Activity” (Biomolecules, 2022)
Values after ≈ are worked out from the molar mass of the structure shown.

Assays:
[1] = tested on: Aspergillus flavus CCM 8363; assay: Antifungal microdilution broth (EUCAST), AFla; assay type: cell-based; details: Aspergillus flavus, CCM8363; read after 24 h; read-out: AFla MIC
[2] = tested on: Staphylococcus epidermidis CCM 4418 (ATCC 12228); assay: Antibacterial microdilution broth (EUCAST), SE; assay type: cell-based; details: read after 24 h, read-out: SE MIC
[3] = tested on: Candida parapsilosis CCM 8260 (ATCC 22019); assay: Antifungal microdilution broth (EUCAST), CP; assay type: cell-based; details: Lodderomyces parapsilosis; read after 24 h; read-out: CP MIC
[4] = tested on: M. aurum DSM 43999 (ATCC 23366); assay: Microplate Alamar Blue Assay (MABA), M. aurum; assay type: cell-based; details: Mycolicibacterium aurum; MABA, resazurin after 72 h; read-out: M. aurum MIC
[5] = tested on: HepG2 human hepatocellular carcinoma cells; assay: In vitro HepG2 cytotoxicity (CellTiter 96); details: Homo sapiens, HepG2, 24 h, read-out: HepG2 IC50, 24 h incubation; * limit = highest evaluated concentration (precipitation in medium); ** over the 1000 µM limit
[6] = tested on: Enterococcus faecalis CCM 4224 (ATCC 29212); assay: Antibacterial microdilution broth (EUCAST), EF; assay type: cell-based; details: Enterococcus faecalis; read after 24 h; read-out: EF MIC
[7] = tested on: Aspergillus fumigatus ATCC 204305; assay: Antifungal microdilution broth (EUCAST), AF; assay type: cell-based; details: Aspergillus fumigatus, ATCC204305; read after 24 h; read-out: AF MIC
[8] = tested on: Mycobacterium smegmatis DSM 43465 (ATCC 607); assay: Microplate Alamar Blue Assay (MABA), M. smegmatis; assay type: cell-based; details: Mycolicibacterium smegmatis; MABA, resazurin after 48 h; read-out: M. smegmatis MIC
[9] = tested on: Trichophyton interdigitale CCM 8377 (ATCC 9533); assay: Antifungal microdilution broth (EUCAST), TI; assay type: cell-based; details: Trichophyton interdigitale, 72 h, read-out: TI MIC
[10] = tested on: Klebsiella pneumoniae CCM 4415 (ATCC 10031); assay: Antibacterial microdilution broth (EUCAST), KP; details: read after 24 h
[11] = tested on: Acinetobacter baumannii DSM 30007 (ATCC 19606); assay: Antibacterial microdilution broth (EUCAST), ACI; assay type: cell-based; details: Acinetobacter baumannii; read after 24 h; read-out: ACI MIC
[12] = tested on: Candida krusei CCM 8271 (ATCC 6258); assay: Antifungal microdilution broth (EUCAST), CK; assay type: cell-based; details: Pichia kudriavzevii; read after 24 h; read-out: CK MIC
[13] = tested on: Staphylococcus aureus subsp. aureus CCM 4223 (ATCC 29213); assay: Antibacterial microdilution broth (EUCAST), SA; assay type: cell-based; details: Staphylococcus aureus; read after 24 h; read-out: SA MIC
[14] = tested on: Candida albicans CCM 8320 (ATCC 24433); assay: Antifungal microdilution broth (EUCAST), CA; assay type: cell-based; details: Candida albicans; read after 24 h; read-out: CA MIC
[15] = tested on: Staphylococcus aureus subsp. aureus methicillin-resistant (MRSA) CCM 4750 (ATCC 43300); assay: Antibacterial microdilution broth (EUCAST), MRSA; assay type: cell-based; details: Staphylococcus aureus; read after 24 h; read-out: MRSA MIC
[16] = tested on: Lichtheimia corymbifera CCM 8077; assay: Antifungal microdilution broth (EUCAST), LC; assay type: cell-based; details: Lichtheimia corymbifera, CCM8077; read after 24 h; read-out: LC MIC
[17] = tested on: Candida tropicalis CCM 8264 (ATCC 750); assay: Antifungal microdilution broth (EUCAST), CT; assay type: cell-based; details: Candida tropicalis; read after 24 h; read-out: CT MIC
[18] = tested on: Pseudomonas aeruginosa CCM 3955 (ATCC 27853); assay: Antibacterial microdilution broth (EUCAST), PA; assay type: cell-based; details: Pseudomonas aeruginosa; read after 24 h; read-out: PA MIC
[19] = tested on: Escherichia coli CCM 3954 (ATCC 25922); assay: Antibacterial microdilution broth (EUCAST), EC; assay type: cell-based; details: Escherichia coli; read after 24 h; read-out: EC MIC
[20] = tested on: Mycobacterium tuberculosis H37Ra ITM-M006710 (ATCC 9431); assay: Microplate Alamar Blue Assay (MABA), Mtb H37Ra; assay type: cell-based; details: for MIC: Mycobacterium tuberculosis, 120 h, pH 6.6, MABA, Middlebrook 7H9 broth pH 6.6, resazurin after 120 h, read-out: Mtb H37Ra MIC; for antimycobacterial activity (in words): activity refers to Mtb H37Ra from the primary screening if not otherwise stated

Structure (SMILES) | MIC [1] [µM] | MIC [2] [µM] | MIC [3] [µM] | MIC [4] [µg/mL] | IC50 [5] [µM] | MIC [6] [µM] | MIC [7] [µM] | MIC [8] [µg/mL] | MIC [9] [µM] | KP MIC [10] [µM] | MIC [11] [µM] | MIC [12] [µM] | MIC [13] [µM] | MIC [14] [µM] | MIC [15] [µM] | MIC [16] [µM] | MIC [17] [µM] | MIC [18] [µM] | MIC [19] [µM] | MIC [20] [µg/mL] | further results
CNC(=O)c1nccnc1NC(=O)c1ccc(Br)cc1 [Compound 35] | > 125 | > 125 | > 125 | ≥ 500 | > 50 | > 125 | > 125 | ≥ 500 | > 125 | > 125 | > 125 | > 125 | > 125 | > 125 | > 125 | > 125 | > 125 | > 125 | > 125 | ≥ 500 | melting point: 202 to 202.5 °C
Cc1ccc(C(=O)Nc2nccnc2C(=O)N(C)C)cc1 [Compound 36] | > 125 | > 125 | > 125 | ≥ 500 | > 1000 | > 125 | > 125 | ≥ 500 | > 125 | > 125 | > 125 | > 125 | > 125 | > 125 | > 125 | > 125 | > 125 | > 125 | > 125 | ≥ 500 | antimycobacterial activity (in words) [20]: inactive; melting point: 188.7 to 189.5 °C
CN(C)C(=O)c1nccnc1NC(=O)c1ccc(Cl)cc1 [Compound 37] | > 500 | > 500 | > 500 | ≥ 500 | > 1000 | > 500 | > 500 | ≥ 500 | > 500 | > 500 | > 500 | > 500 | > 500 | > 500 | > 500 | > 500 | > 500 | > 500 | > 500 | ≥ 500 | antimycobacterial activity (in words) [20]: inactive; melting point: 184.1 to 185.3 °C
O=c1[nH]c(-c2ccccc2)nc2nccnc12 [Compound 39] | > 125 | > 125 | > 125 | 125 (≈ 557 µM) | > 1000 | > 125 | > 125 | ≥ 500 | > 125 | > 125 | > 125 | > 125 | > 125 | > 125 | > 125 | > 125 | > 125 | > 125 | > 125 | 62.5 (≈ 279 µM) | melting point: 283.5 to 284.5 °C
Cc1ccc(-c2nc3nccnc3c(=O)[nH]2)cc1 [Compound 40] | > 125 | > 125 | > 125 | 250 (≈ 1050 µM) | > 1000 | > 125 | > 125 | ≥ 250 | > 125 | > 125 | > 125 | > 125 | > 125 | > 125 | > 125 | > 125 | > 125 | > 125 | > 125 | 31.2 (≈ 131 µM) | melting point: 300.5 to 302 °C
O=c1[nH]c(-c2ccc(F)cc2)nc2nccnc12 [Compound 41] | > 125 | > 125 | > 125 | ≥ 500 | > 1000 | > 125 | > 125 | ≥ 500 | > 125 | > 125 | > 125 | > 125 | > 125 | > 125 | > 125 | > 125 | > 125 | > 125 | > 125 | ≥ 500 | melting point: 277 to 279.5 °C
